# Laboratory results published in ChEMBL document CHEMBL5257051, “Integrasone Derivatives Isolated from Lepteutypa sp. KT4162 and Their Anti-HIV-1 Integrase Activity” (J Nat Prod, 2023).
# Assays:
# [1] = Cytotoxicity against human HEK293T cells assessed as cell growth inhibition measured for 30 mins by WST assay; type: toxicity, cell-based, HEK-293T
# [2] = Inhibition of HIV-1 Integrase transfected in human HEK293T cells measured after 48 hrs by bright-glo luciferase assay; type: cell-based; conditions: Human immunodeficiency virus 1, HEK-293T
# [3] = Cytotoxicity against human HEK293T cells assessed as cell growth inhibition by MTT assay; type: toxicity, cell-based, HEK-293T
# [4] = Inhibition of HIV-1 Integrase transfected in human HEK293T cells measured after 48 hrs by luminometer analysis; type: cell-based, Human immunodeficiency virus 1
Compound,IC50 [2],IC50 [4],CC50 at 0.5 h [1],CC50 [3]
CCCCCCCCC(=O)Cc1occ2c1[C@@H](O)[C@@H]1O[C@@H]1[C@@H]2O,40 µM,,> 250 µM,
CCCCCCCCC(=O)C[C@H]1OCC2=C1[C@@H](O)[C@@H]1O[C@@H]1[C@@H]2O,95 µM,,> 250 µM,
O=C(CCCCCCCCO)C[C@H]1OCC2=C1[C@@H](O)[C@@H]1O[C@@H]1[C@@H]2O,112 µM,,> 250 µM,

# Now from value to compound, other results behind:
IC50 [2],IC50 [4],Compound,CC50 at 0.5 h [1],CC50 [3]
56 µM,,CCCCCCCCC(=O)C[C@H]1OC(=O)C2=C1[C@@H](O)[C@@H]1O[C@@H]1[C@@H]2O,> 250 µM,
2.5 µM,,CCCCCCCCC(=O)C[C@@H]1OC(=O)C2=C1[C@@H](O)[C@@H]1O[C@@H]1[C@@H]2O,> 250 µM,
,3.8 µM,COc1cc2c(cc1Cc1cccc(Cl)c1F)c(=O)c(C(=O)O)cn2[C@H](CO)C(C)C [ELVITEGRAVIR],,> 250 µM
